The values that follow come from patent publication US20100292232A1, “NON-NUCLEOSIDE REVERSE TRANSCRIPTASE INHIBITORS” (priority 2007, published 2010).

Data set [1] has as its system HIV reverse transcriptase having a mutation at codons 103 alone or in combination with a mutation at codon 188. The note with it: strains with RT mutation at codon 103 (asparagine) alone or with 188 (leucine); U.S. Pat. No. 7,037,644; cited from earlier work.
Data set [2] has as its system HIV reverse transcriptase having a mutation at codon 181 and 227. The note with it: strains with RT mutation at codon 181 (cysteine) and 227 (leucine); U.S. Pat. No. 7,037,644; cited from earlier work.
The test system of data set [3] is HIV reverse transcriptase having a mutation at codon 106 and 181 and 227. The note with it: strains with RT mutation at codon 106 (alanine), 181 (cysteine) and 227 (leucine); U.S. Pat. No. 7,037,644; cited from earlier work.
A short description of data set [4]: cytotoxicity, CellTiter-Glo (ATP content) 24 hours after treatment. Conditions: human, mock-infected 293T cells. (In general: Cellular ATP, detected with luciferase, serves as a proxy for viable cell number.)
Data set [5] relates to HIV-1 vector with RT mutation Y181C. Briefly: microbe, parasite or virus in culture. In kind it is cell-based. The note with it: Human immunodeficiency virus 1.
Data set [6] deals with VSV-G pseudotyped HIV-1 vector (wild-type, pNL4-3LucR+E-). Briefly: microbe, parasite or virus in culture. The note with it: for EC50 / IC50: Human immunodeficiency virus 1, HEK-293T. It is filed as cell-based.
Data set [7] addresses T1, HIV-1 reverse transcriptase (Human immunodeficiency virus type 1 group M subtype B, UniProt P04585).
T1 construct: HIV-1 RT includes a p66/p51 heterodimer; purchased Ambion, Austin, Tex
As to the kind of experiment: in vitro purified HIV-1 reverse transcriptase assay. In kind it is biochemical. How it is done:
Anti-HIV-1 reverse transcriptase activity of the disclosed inhibitor compounds was assayed in vitro using an assay adapted from King et al. (Antimicrob. Agents Chemother. 46(6): 1640-46; 2002) and Telesnitsky et al. (Methods Enzymol. 262:347-62; 1995). HIV-1 RT (0.5 units; Ambion, Austin, Tex.) was incubated with various concentrations of compounds for 5 minutes at room temperature. Then a template-primer mixture was added to reach final concentration of 5 μg/mL oligo(dT)20, 10 μg/mL poly(rA), 1.25 μM [α-32P]dTTP and 10 μM dTTP. The mixture was incubated at 37° C. for 60 minutes. Aliquots of the reaction were spotted on DEAE paper, washed twice with 2×SSC buffer (300 mM NaCl, 30 mM sodium citrate) and once with 95% ethanol, dried and exposed to PhosphorImager screen (Molecular Dynamics, Sunnyvale, Calif.). The screens were scanned by FLA-5100 instrument (Fujifilm Life Science, Stamford, Conn.) and the amount of incorporated labeled phosphate was used to quantify the RT activity. The best fitted curves and IC50 values were calculated using Prism 4 software (GraphPad Software, San Diego). […] For the in vitro studies, a triphosphate form of AZT (EMD Biosciences, San Diego, Calif.) was used.

For data set [8], the system named is HIV-1 reverse transcription viral DNA products. As to the kind of experiment: real-time PCR quantitation of viral DNA products. In kind it is cell-based. Conditions: for effect on synthesis of early and late viral DNA products: 5 μM, 24 hours post infection, FIG. 18. How it is done: Real-time quantitation of viral DNA was accomplished using PCR as follows. The total cellular DNA was harvested 24 hours post infection with the AccuPrep genomic DNA extraction kit (Bioneer Life Science Corp., Rockville, Md.). The amount of viral DNA products was quantified by real-time PCR on ABI Prism 7900 Sequence Detection System (Applied Biosystems, Foster City, Calif.) with the following primers and probes: early HIV-1 reverse transcripts with primers ert2f, ert2r, probe ERT2 (Munk et al., Proc. Natl. Acad. Sci. 99(21):13843-48; 2002, herein incorporated by reference as to the sequence of the primers), late HIV-1 reverse transcripts with primers MH531, MH532, probe LRT-P, 2-LTR circular DNA with primers MHH535, MH536, probe MH603 (Butler et al., Nat. Med. 7(5):631-4; 2001, herein incorporated by reference as to the sequence of the primers and probes). To control the number of cell equivalent DNA in the samples, a single-copy locus in the porphobilinogen deaminase (PBGD) gene (Buckman et al., J. Virol. 77(2):1469-80; 2003) was amplified with primers PBGD1 (5′-[…]; SEQ ID NO: 1) and PBGD2 (5′-[…]; SEQ ID NO: 2) and probe PBGD-P (5′-VIC-[…]-MGBNFQ; SEQ ID NO: 3).
The quantitative real-time PCR-based approach described above was used to determine whether the presently disclosed compounds, such as 08-006-F2, block HIV infection at a step prior to the synthesis of late viral DNA products. Using different specific primers and probes, the amount of early viral DNA products, late viral DNA products, and 2LTR-containing circular forms of viral DNA, were quantified 24 hours post infection. […] As shown in F1G. 18, the effect of 5 μM compound 08-006-F2 and 5 μM AZT on the synthesis of viral DNA products was measured by quantitative real-time PCR. Quantitation of early and late HIV-1 reverse transcription products is illustrated, as is quantitation of 2-LTR containing circular DNA forms (the circular DNA forms serve as a surrogate marker for nuclear translocation of viral DNA). […]

For data set [9], the system named is cells that express luciferase from established HIV-1 proviral DNA. Briefly: effect on provirus gene expression. It is filed as cell-based. Conditions: data not shown. From the text: It also was investigated whether 08-006-F2 exerts an additional effect on provirus gene expression.
In data set [10] the test system is HIV-1 vector with RT mutation V106A. As to the kind of experiment: microbe, parasite or virus in culture. Conditions: Human immunodeficiency virus 1. It is filed as cell-based.
Data set [11] relates to HIV-1 vector with RT mutation K103N. As to the kind of experiment: microbe, parasite or virus in culture. In kind it is cell-based. The note with it: Human immunodeficiency virus 1.
The test system of data set [12] is wild-type and NNRTI mutant viruses (Y188L, Y181C, V106A, K103N). As to the kind of experiment: cell based infectivity assay, wild type and four mutant vectors together. The arrangement: species or system HIV-1. Conditions: FIGS. 22 and 24.
The test system of data set [13] is HIV-1 vector with RT mutation Y188L. Briefly: microbe, parasite or virus in culture. Conditions: Human immunodeficiency virus 1. In kind it is cell-based.

Entries after “also recorded” stand apart in the source; their conditions may differ. Where two headings read alike, the source gives them in different places.

Consider `CC(C)Nc1cccnc1N1CCN(C(=O)c2cc3cc(NS(C)(=O)=O)ccc3[nH]2)CC1` [delavirdine], for which the “change in drug susceptibility” value in data set [1] is “substantial decrease”; in data set [2], “increase”; in [3], “moderate decrease”.
For `Clc1ccccc1-c1nc2ccccn2c1NC1CCCCC1` [08-006-F2], the CC50 – broadly, the concentration that lowers cell viability or growth by half – at 24 h in data set [4] was found to be 35000 nM. Besides, the EC50 (usually the concentration giving half of the maximal effect) in data set [5] was 1070 nM; in data set [6] it was 185 nM; in [10], 764 nM; in [11], 2360 nM. The “combined effect with AZT on HIV-1 infectivity (isobologram)” value in data set [6] is “synergistic effects; also recorded: synergistic inhibition”. Also, the IC50 (in general, the midpoint of a concentration-inhibition curve) in [6] turned out to be 800 nM; in [6] (read-out: IC50 inhibition of HIV-1 vector infectivity), 170 nM; in data set [7] (FIG. 16 dose-response curve, read-out: IC50 inhibition of purified HIV-1 reverse transcriptase activity) it was 2800 nM. In [7] (combination with AZT triphosphate, 50% and 90% fractional inhibitory concentrations, FIGS. 17A, 17B), the “combined effect with AZT on purified HIV-1 reverse transcriptase (isobologram)” value is “synergistic effect; also recorded: synergistic inhibition”. Besides, in data set [8], the “effect on synthesis of early and late viral DNA products” value is “blocked the synthesis of early and late viral DNA”. Further, the “inhibition of HIV-1 late RT product formation” value in [8] (dose response, FIG. 19) is “dose-dependent inhibition”. Moreover, the “effect on provirus gene expression” value in [9] is “no significant influence”.
For `O=C1Nc2ccc(Cl)cc2[C@@](C#CC2CC2)(C(F)(F)F)O1` [efavirenz], the “change in drug susceptibility” value in data set [1] was “substantial decrease”; in data set [2], “increase”; in data set [3], “slight decrease”.
For `Cc1cn([C@H]2C[C@H](N=[N+]=[N-])[C@@H](CO)O2)c(=O)[nH]c1=O` [AZT, zidovudine], the “inhibition of wild-type and NNRTI-resistant RT mutant viruses (in words)” value in data set [12] was “efficiently inhibited”. The EC50 in data set [5] is 6.12 nM; in data set [13] it was 9.35 nM; in data set [6] it was 7.7 nM; in data set [10], 9.14 nM; in [11], 8.76 nM. Moreover, in [8], the “effect on synthesis of early and late viral DNA products” value was “block at the reverse transcription step”.
Regarding `Cc1ccnc2c1NC(=O)c1cccnc1N2C1CC1` [NVP, nevirapine], the EC50 in data set [5] turned out to be 2000 nM; in data set [13], 279000 nM; in data set [6] it was 27.4 nM; in [10], 888 nM; in data set [11], 977 nM.
Regarding `Cc1ccnc2c1NC(=O)c1cccnc1N2C1CC1` [nevirapine, Nevirapine], the entries for the “change in drug susceptibility” value in [1], in data set [2] and in [3] were “substantial decrease”, “significant decrease” and “substantial decrease”, respectively.
